Several values for one entry are separate records, joined by “and”; a condition that tells them apart may be missing. Equal values may be shown once.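 Method: 48-hour compound exposure of cells in 96-well plates, five concentrations, linear interpolation of endpoints. GI50 is the concentration that inhibits growth by half. Definition used: TGI = concentration required for complete inhibition of growth.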 Where a SMILES comes first, the peptide text is derived from it. [ ]: non-standard residue; d: D form. The star is where a group is joined. ξ: configuration not given here. ξF = NC(Cc1ccccc1)C(=O)O; Cbz = O=C(OCc1ccccc1)*

Experimental findings from PubChem BioAssay (NCI) are described below.

One experiment relates to NCI/ADR-RES ovarian. Put plainly: NCI anticancer screen, dose series, 48 h.
In turn, `CCN1CCC(O)(c2ccc([N+](=O)[O-])cc2)C(C(=O)c2ccc([N+](=O)[O-])cc2)C1` (centres undefined) came in with a TGI above 100 µM.
Same read-out and setting: the result for `CCOC(=O)CNC(=O)C(Cc1ccccc1)NC(=O)OCc1ccccc1` (centres undefined) (Cbz-[ξF]-Gly-OEt) reads above 100 µM; that for `S=C1Cc2c(-c3ccccc3)cc(-c3cccc(Cl)c3)nc2-c2ccccc2N1`, 8.32 µM.
As to `N#Cc1c(NC(=O)C(F)(F)F)sc2c3c(=O)c4ccccc4c(=O)c=3oc3ccccc3c12`, the TGI is 61.7 µM.
On the same count and under the same terms, the figure for `Cc1c(C)c2c(c(N)c1C#N)C(=O)N(Cc1ccc(S(N)(=O)=O)cc1)C2=O` is above 100 µM; for `O=C(NCCN(CCNC(=O)c1cccc(O)c1O)CCNC(=O)c1cccc(O)c1O)c1cccc(O)c1O` it is above 100 µM.
Same read-out and setting: the figure for `COC(=O)/C=C(\C(=O)OC)c1cc(C)c2cc(C(C)C)ccc(C)c1-2` is above 100 µM; for `C[C@@H](CC(=O)OCc1ccccc1)OC1OC(COC(=O)C(C)(C)C)C(OC(=O)C(C)(C)C)C(OC(=O)C(C)(C)C)C1OC(=O)C(C)(C)C` (some centres undefined) it is above 100 µM; for `Cc1ccc(OCC2OC(n3cnc4c(Cl)nc(Nc5cc(Cl)cc(Cl)c5)nc43)CC2Oc2ccc(C)cc2)cc1` (centres undefined) it is above 100 µM.
On to `O=[N+]([O-])c1cccc2nc3ccccc3c(NCCCCCNc3c4ccccc4nc4cccc([N+](=O)[O-])c34)c12`, for which the GI50 was 0.297 µM; the TGI was 2.19 µM and 1.28 µM.
`COc1ccccc1C1c2cc3c(cc2OC2(OC)COC(=O)C12)OCO3` (centres undefined) registered a TGI above 100 µM.

A further experiment relates to PC-3 prostate. Put plainly: NCI anticancer screen, dose series, 48 h.
As to `CCN1CCC(O)(c2ccc([N+](=O)[O-])cc2)C(C(=O)c2ccc([N+](=O)[O-])cc2)C1` (centres undefined), the TGI was above 100 µM.
On the same count and under the same terms, the result for `CCOC(=O)CNC(=O)C(Cc1ccccc1)NC(=O)OCc1ccccc1` (centres undefined) (Cbz-[ξF]-Gly-OEt) reads above 100 µM.
`S=C1Cc2c(-c3ccccc3)cc(-c3cccc(Cl)c3)nc2-c2ccccc2N1` displayed a TGI above 96.1 µM.
Compound `N#Cc1c(NC(=O)C(F)(F)F)sc2c3c(=O)c4ccccc4c(=O)c=3oc3ccccc3c12` gave a TGI above 62.2 µM.
The same measure, in the same setting: the result for `Cc1c(C)c2c(c(N)c1C#N)C(=O)N(Cc1ccc(S(N)(=O)=O)cc1)C2=O` reads above 100 µM.
The same measure, in the same setting: the figure for `O=C(NCCN(CCNC(=O)c1cccc(O)c1O)CCNC(=O)c1cccc(O)c1O)c1cccc(O)c1O` is above 100 µM; for `COC(=O)/C=C(\C(=O)OC)c1cc(C)c2cc(C(C)C)ccc(C)c1-2` it is above 100 µM.
Turning to `C[C@@H](CC(=O)OCc1ccccc1)OC1OC(COC(=O)C(C)(C)C)C(OC(=O)C(C)(C)C)C(OC(=O)C(C)(C)C)C1OC(=O)C(C)(C)C` (some centres undefined), the TGI was above 100 µM.
In turn, `Cc1ccc(OCC2OC(n3cnc4c(Cl)nc(Nc5cc(Cl)cc(Cl)c5)nc43)CC2Oc2ccc(C)cc2)cc1` (centres undefined) yielded a TGI above 100 µM.
The same measure, in the same setting: the figure for `O=[N+]([O-])c1cccc2nc3ccccc3c(NCCCCCNc3c4ccccc4nc4cccc([N+](=O)[O-])c34)c12` is 0.598 µM; for `COc1ccccc1C1c2cc3c(cc2OC2(OC)COC(=O)C12)OCO3` (centres undefined) it is above 92.7 µM.

For another experiment, the system named is SF-295 CNS. The experiment can be described thus: NCI anticancer screen, dose series, 48 h.
In the case of `CCN1CCC(O)(c2ccc([N+](=O)[O-])cc2)C(C(=O)c2ccc([N+](=O)[O-])cc2)C1` (centres undefined), the TGI is above 100 µM.
Same read-out and setting: the result for `CCOC(=O)CNC(=O)C(Cc1ccccc1)NC(=O)OCc1ccccc1` (centres undefined) (Cbz-[ξF]-Gly-OEt) reads above 100 µM; that for `S=C1Cc2c(-c3ccccc3)cc(-c3cccc(Cl)c3)nc2-c2ccccc2N1`, 17.2 µM.
Still for that read-out and setting: the figure for `N#Cc1c(NC(=O)C(F)(F)F)sc2c3c(=O)c4ccccc4c(=O)c=3oc3ccccc3c12` is 35.8 µM; for `Cc1c(C)c2c(c(N)c1C#N)C(=O)N(Cc1ccc(S(N)(=O)=O)cc1)C2=O` it is above 56.6 µM; for `O=C(NCCN(CCNC(=O)c1cccc(O)c1O)CCNC(=O)c1cccc(O)c1O)c1cccc(O)c1O` it is above 100 µM.
`COC(=O)/C=C(\C(=O)OC)c1cc(C)c2cc(C(C)C)ccc(C)c1-2` gave a TGI above 100 µM.
The same measure, in the same setting: the figure for `C[C@@H](CC(=O)OCc1ccccc1)OC1OC(COC(=O)C(C)(C)C)C(OC(=O)C(C)(C)C)C(OC(=O)C(C)(C)C)C1OC(=O)C(C)(C)C` (some centres undefined) is above 100 µM; for `Cc1ccc(OCC2OC(n3cnc4c(Cl)nc(Nc5cc(Cl)cc(Cl)c5)nc43)CC2Oc2ccc(C)cc2)cc1` (centres undefined) it is above 100 µM.
For the compound `O=[N+]([O-])c1cccc2nc3ccccc3c(NCCCCCNc3c4ccccc4nc4cccc([N+](=O)[O-])c34)c12`, the GI50 is 0.0226 µM; the TGI was 0.905 µM and 1.13 µM.
With `COc1ccccc1C1c2cc3c(cc2OC2(OC)COC(=O)C12)OCO3` (centres undefined), the TGI turned out to be 63.9 µM.

Another experiment relates to SN12C renal. Put plainly: NCI anticancer screen, dose series, 48 h.
`CCN1CCC(O)(c2ccc([N+](=O)[O-])cc2)C(C(=O)c2ccc([N+](=O)[O-])cc2)C1` (centres undefined) came in with a TGI of 38.8 µM.
Still for that read-out and setting: the result for `CCOC(=O)CNC(=O)C(Cc1ccccc1)NC(=O)OCc1ccccc1` (centres undefined) (Cbz-[ξF]-Gly-OEt) reads above 100 µM; that for `S=C1Cc2c(-c3ccccc3)cc(-c3cccc(Cl)c3)nc2-c2ccccc2N1`, 16.7 µM.
Same read-out and setting: the result for `N#Cc1c(NC(=O)C(F)(F)F)sc2c3c(=O)c4ccccc4c(=O)c=3oc3ccccc3c12` reads 55.3 µM; that for `Cc1c(C)c2c(c(N)c1C#N)C(=O)N(Cc1ccc(S(N)(=O)=O)cc1)C2=O`, above 100 µM.
Same read-out and setting: the result for `O=C(NCCN(CCNC(=O)c1cccc(O)c1O)CCNC(=O)c1cccc(O)c1O)c1cccc(O)c1O` reads above 100 µM; that for `COC(=O)/C=C(\C(=O)OC)c1cc(C)c2cc(C(C)C)ccc(C)c1-2`, above 100 µM; that for `C[C@@H](CC(=O)OCc1ccccc1)OC1OC(COC(=O)C(C)(C)C)C(OC(=O)C(C)(C)C)C(OC(=O)C(C)(C)C)C1OC(=O)C(C)(C)C` (some centres undefined), above 100 µM.
Take `Cc1ccc(OCC2OC(n3cnc4c(Cl)nc(Nc5cc(Cl)cc(Cl)c5)nc43)CC2Oc2ccc(C)cc2)cc1` (centres undefined): the TGI was above 100 µM.
On the same count and under the same terms, the result for `O=[N+]([O-])c1cccc2nc3ccccc3c(NCCCCCNc3c4ccccc4nc4cccc([N+](=O)[O-])c34)c12` reads 0.0777 µM and 0.0827 µM.
Still for that read-out and setting: the result for `COc1ccccc1C1c2cc3c(cc2OC2(OC)COC(=O)C12)OCO3` (centres undefined) reads above 100 µM.

For the next experiment, the system named is SR leukemia. The experiment can be described thus: NCI anticancer screen, dose series, 48 h.
Regarding `CCN1CCC(O)(c2ccc([N+](=O)[O-])cc2)C(C(=O)c2ccc([N+](=O)[O-])cc2)C1` (centres undefined), the TGI was above 100 µM.
The same measure, in the same setting: the result for `CCOC(=O)CNC(=O)C(Cc1ccccc1)NC(=O)OCc1ccccc1` (centres undefined) (Cbz-[ξF]-Gly-OEt) reads above 100 µM.
The same measure, in the same setting: the figure for `S=C1Cc2c(-c3ccccc3)cc(-c3cccc(Cl)c3)nc2-c2ccccc2N1` is 46.9 µM; for `N#Cc1c(NC(=O)C(F)(F)F)sc2c3c(=O)c4ccccc4c(=O)c=3oc3ccccc3c12` it is 13.5 µM.
Same read-out and setting: the result for `Cc1c(C)c2c(c(N)c1C#N)C(=O)N(Cc1ccc(S(N)(=O)=O)cc1)C2=O` reads above 100 µM; that for `O=C(NCCN(CCNC(=O)c1cccc(O)c1O)CCNC(=O)c1cccc(O)c1O)c1cccc(O)c1O`, above 34.2 µM; that for `COC(=O)/C=C(\C(=O)OC)c1cc(C)c2cc(C(C)C)ccc(C)c1-2`, above 100 µM.
Take `C[C@@H](CC(=O)OCc1ccccc1)OC1OC(COC(=O)C(C)(C)C)C(OC(=O)C(C)(C)C)C(OC(=O)C(C)(C)C)C1OC(=O)C(C)(C)C` (some centres undefined): the TGI was above 100 µM.
Still for that read-out and setting: the figure for `Cc1ccc(OCC2OC(n3cnc4c(Cl)nc(Nc5cc(Cl)cc(Cl)c5)nc43)CC2Oc2ccc(C)cc2)cc1` (centres undefined) is above 100 µM; for `O=[N+]([O-])c1cccc2nc3ccccc3c(NCCCCCNc3c4ccccc4nc4cccc([N+](=O)[O-])c34)c12` it is 0.0202 µM; for `COc1ccccc1C1c2cc3c(cc2OC2(OC)COC(=O)C12)OCO3` (centres undefined) it is above 28.8 µM.

The next experiment has as its system UO-31 renal. The experiment can be described thus: NCI anticancer screen, dose series, 48 h.
Take `CCN1CCC(O)(c2ccc([N+](=O)[O-])cc2)C(C(=O)c2ccc([N+](=O)[O-])cc2)C1` (centres undefined): the TGI was determined as 36.8 µM.
Still for that read-out and setting: the result for `CCOC(=O)CNC(=O)C(Cc1ccccc1)NC(=O)OCc1ccccc1` (centres undefined) (Cbz-[ξF]-Gly-OEt) reads above 100 µM.
Still for that read-out and setting: the result for `S=C1Cc2c(-c3ccccc3)cc(-c3cccc(Cl)c3)nc2-c2ccccc2N1` reads 16.9 µM; that for `N#Cc1c(NC(=O)C(F)(F)F)sc2c3c(=O)c4ccccc4c(=O)c=3oc3ccccc3c12`, 46.4 µM; that for `Cc1c(C)c2c(c(N)c1C#N)C(=O)N(Cc1ccc(S(N)(=O)=O)cc1)C2=O`, above 100 µM.
On the same count and under the same terms, the result for `O=C(NCCN(CCNC(=O)c1cccc(O)c1O)CCNC(=O)c1cccc(O)c1O)c1cccc(O)c1O` reads above 100 µM.
The compound `COC(=O)/C=C(\C(=O)OC)c1cc(C)c2cc(C(C)C)ccc(C)c1-2` returned a TGI above 100 µM.
Compound `C[C@@H](CC(=O)OCc1ccccc1)OC1OC(COC(=O)C(C)(C)C)C(OC(=O)C(C)(C)C)C(OC(=O)C(C)(C)C)C1OC(=O)C(C)(C)C` (some centres undefined) showed a TGI above 100 µM.
Compound `Cc1ccc(OCC2OC(n3cnc4c(Cl)nc(Nc5cc(Cl)cc(Cl)c5)nc43)CC2Oc2ccc(C)cc2)cc1` (centres undefined) showed a TGI above 100 µM.
As to `O=[N+]([O-])c1cccc2nc3ccccc3c(NCCCCCNc3c4ccccc4nc4cccc([N+](=O)[O-])c34)c12`, the GI50 is 0.0192 µM; the TGI is 0.406 µM and 0.0604 µM.
As to `COc1ccccc1C1c2cc3c(cc2OC2(OC)COC(=O)C12)OCO3` (centres undefined), the TGI was found to be 65.6 µM.
